Test results: patent publication US20040063783A1, “Nitroso diphenylamine derivatives” (priority 2003, published 2004)

Legend:
Assay type in all cases: biochemical
[1] = test system: human low molecular weight lipoproteins; experiment: Prevention of cupric-ion oxidation of human low molecular weight lipoproteins (apoprotein B fluorescence), compounds of the formula II; conditions: lipoproteins oxidized with cupric ions for 24 hours at 37° C, fluorescence excitation 360 nm, emission 460 nm
Method: In the test carried out, the human low molecular weight lipoproteins are oxidized with cupric ions for 24 hours at 37° C. The B apoprotein bome by these lipoproteins becomes fluorescent on oxidation (excitation at 360 nm, emission at 460 nm). In the presence of the compounds of the formula II, a decrease in fluorescence is noted, which reflects the antioxidant power of the compounds of the formula II. The results are expressed in the form of a 50% inhibitory concentration (IC50).

Human LDLs = experiment: Oxidation of human LDL in the presence of cupric ion (fluorescence), antioxidant effect; conditions: human LDL 120 μg/ml, 100 μM CuCl2; difference of fluorescence readings at 2 h and 24 h, 37° C; from 3 product concentrations
Method: Human LDLs dissolved in aqueous solution in the presence of cupric ion become spontaneously oxidized on their protein component, apolipoprotein B. This oxidation makes the particle fluorescent, which is exploited to measure a pharmacological effect.
The reactions and measurements are carried out in black 96-well plates, 10 μl of a solution of the test product dissolved in dimethyl sulfoxide are first mixed with 170 μl of a solution of human LDL at 120 μg/ml and 20 μl of 100 μM CuCl2. After stirring, the mixture is left to incubate for 2 hours at 37° C., and a first fluorescence reading is taken (excitation at 360 nm, reading at 460 nm). The mixture is then left to incubate for a further 22 hours, to take a second reading under the same conditions. The difference between the two values obtained is the measurement of the oxidation of the LDLs in solution. This difference is proportionately smaller the greater the antioxidant power of the test product. Probucol is used as reference product at 10 μM.
The concentrations which inhibit the oxidation by 50% (IC50) are produced from 3 product concentrations.

[2] = Spontaneous nitric oxide release: nitrites+nitrates titrated by colorimetry (Griess reagent, nitrate reductase); conditions: test product final concentration 150 μM; 4 hours at 37° C; pH 7.5 PBS buffer; optical density at 540 nm
Method: A solution of a compound of the invention spontaneously releases nitric oxide. The nitrite ions resulting therefrom are titrated by colorimetry by means of a specific reagent (Griess). To take account of any release of nitrate ions in addition to the nitrite ions, bacterial nitrate reductase is added to the reaction medium to allow the nitrate ions formed to be reduced.
The reactions and measurements are carried out in transparent 96-well plates. The test products are dissolved at the time of use to a concentration of 3 mM in dimethyl sulfoxide. 95 μl of a reagent containing nitrate reductase (0.18U/ml in 100 mM pH 7.5 PBS buffer, 210 μM β-NADPH, 5 μM FAD) and 5 μl of a solution of the test product (final concentration of 150 μM) are then added to each well. After stirring, the mixture is left to incubate for 4 hours at 37° C. The reaction is then quenched by addition of 100 μl of the Griess reagent (Sigma G4410). The reagent is allowed to act for 5 minutes at room temperature and the optical density is then read at 540. nm. This value is proportional to the concentration of nitrites+nitrates in the medium. A calibration range is made for each plate using NaNO2.
The results are expressed as […] (μM) of nitrites+nitrates released, in Table 5 below.

Structure (SMILES)	IC50 [1] [µM]	IC50 (Human LDLs) [µM]	Nitrates + nitrites [2] [µM]
CCn1nc(C)cc1C(=O)Nc1ccc(Nc2ccc(OC)cc2)cc1	8.3		
CC(C)(C)c1cc(CC(=O)Nc2ccc(Nc3ccccc3)cc2)ccc1O	4.8		
O=S(=O)(/C=C/c1ccccc1)Nc1ccc(Nc2ccccc2)cc1	12.2		
COc1ccc(Nc2ccc(NC(=O)c3cc([N+](=O)[O-])ccc3Oc3ccc(OC)cc3)cc2)cc1	8.8		
COc1ccc(Nc2ccc(NC(=O)c3cccnc3Oc3ccc(Cl)cc3)cc2)cc1	3.6		
COc1ccc(Nc2ccc(NC(=O)c3cnc(Cl)nc3)cc2)cc1	2.6		
COc1ccc(Nc2ccc(NC(=O)Cc3cc(C(C)(C)C)c(O)c(C(C)(C)C)c3)cc2)cc1	2.8		
COc1ccc(Nc2ccc(NC(=O)c3sc(S(C)(=O)=O)c4c3CCC=C4)cc2)cc1	7.3		
COc1ccc(Nc2ccc(NC(=O)/C=C/c3ccccc3[N+](=O)[O-])cc2)cc1	13.3		
COc1ccc(Nc2ccc(NC(=O)c3cc(C(C)(C)C)c(O)c(C(C)(C)C)c3)cc2)cc1	9.4		
COc1ccc(Nc2ccc(NC(=O)c3cc4cccc(OC)c4oc3=O)cc2)cc1	8.7		
CCCCCCc1ccc(C(=O)Nc2ccc(Nc3ccc(OC)cc3)cc2)s1	11.1		
COc1ccc(Nc2ccc(NC(=O)c3cc(Cl)cnc3Cl)cc2)cc1	5.4		
COc1ccc(Nc2ccc(NS(=O)(=O)c3cccc4cccnc34)cc2)cc1	8.7		
COc1ccc(Nc2ccc(NC(=O)c3ccc[n+]([O-])c3)cc2)cc1	10.5		
COc1ccc(Nc2ccc(NC(=O)OCc3ccccc3)cc2)cc1 [253 (formula II), Benzyl 4-[(4-methoxyphenyl)amino]phenylcarbamate]	2		
COc1ccc(N(N=O)c2ccc(NC(=O)c3cccnc3)cc2)cc1 [Example 1, N-nitroso[4-methoxyphenyl][4-(3-pyridylcarbonylamino)phenyl]amine]		6.4	97
COc1ccc(N(N=O)c2ccc(NC(=O)c3cncnc3)cc2)cc1 [Example 4]		5.4	84
O=NN(c1ccccc1)c1ccc(NS(=O)(=O)c2cccnc2)cc1 [Example 6]		6.5	83
O=NN(c1ccccc1)c1ccc(NC(=O)Nc2ccccc2)cc1 [Example 8]		5.4	44
COc1ccc(N(N=O)c2ccc(NC(=O)c3ccc(C#N)cc3)cc2)cc1 [Example 12]		2.2	22
O=NN(c1ccccc1)c1ccc(NS(=O)(=O)c2ccccc2)cc1 [Example 45]		3.2	62
COc1ccc(N(N=O)c2ccc(NC(=O)OCc3ccccc3)cc2)cc1 [Example 253, Benzyl 4-[1-(4-methoxyphenyl)-2-oxohydrazino]phenylcarbamate]		3.6	45

Second part, the molecule after the results:

IC50 [1] [µM]	IC50 (Human LDLs) [µM]	Nitrates + nitrites [2] [µM]	Structure (SMILES)
	3.7	71	COc1ccc(N(N=O)c2ccc(NC(=O)c3cccc([N+](=O)[O-])c3)cc2)cc1 [Example 18]
	8.9	109	O=NN(c1ccccc1)c1ccc(NC(=O)c2cccnc2)cc1 [Example 57]
	3.8	79	COc1ccc(N(N=O)c2ccc(NS(=O)(=O)c3ccc(OC)cc3)cc2)cc1 [Example 86]
	6.4		CC(C)(Sc1cc(C(C)(C)C)c(O)c(C(C)(C)C)c1)Sc1cc(C(C)(C)C)c(O)c(C(C)(C)C)c1 [Probucol, reference compound]
8.4			COc1ccc(Nc2ccc(NC(=O)c3ccco3)cc2)cc1 [T=4-MeO—, X=H, A=CO, Y=2-furyl]
6.4			COc1ccc(Nc2ccc(NC(=O)c3cccc(C(F)(F)F)c3)cc2)cc1 [T=4-MeO—, X=H, A=CO, Y=3-CF3—C6H4—]
3.8			COc1ccc(Nc2ccc(NC(=O)c3cccnc3)cc2)cc1 [T=4-MeO—, X=H, A=CO, Y=3-pyridyl]
11.2			COc1ccc(Nc2ccc(NC(=O)c3ccc(N(C)C)cc3)cc2)cc1 [T=4-MeO—, X=H, A=CO, Y=4-(CH3)2N—C6H4—]
5			COc1ccc(Nc2ccc(NS(=O)(=O)c3ccc(OC)cc3)cc2)cc1 [T=4-MeO—, X=H, A=SO2, Y=4-MeO—C6H4—]
1.8			CSc1ccc(Nc2ccc(NC(=O)c3ccccc3)cc2)cc1 [T=4-MeS—, X=H, A=CO, Y=C6H5]
6.5			COc1ccc(Nc2ccc(NC(=O)c3cccc([N+](=O)[O-])c3)cc2)cc1 [T=4-Me—O—, X=H, A=CO, Y=3-NO2—C6H4—]
5.2			COc1ccc(Nc2ccc(NC(=O)c3cncnc3)cc2)cc1 [T=4-Me—O—, X=H, A=CO, Y=5-pyrimidyl, 4-methoxy4′-[5-pyrimidinylcarbonylamino]diphenylamine]
7.9			COc1ccc(Nc2ccc(NS(=O)(=O)c3cccnc3)cc2)cc1 [T=4-Me—O—, X=H, A=SO2, Y=3-pyridyl]
3.3			O=S(=O)(Nc1ccc(Nc2ccccc2)cc1)c1cccs1 [T=H, X=H, A=SO2, Y=2-thienyl]
13.4			CC(=O)Nc1ccc(S(=O)(=O)Nc2ccc(Nc3ccccc3)cc2)cc1Cl [T=H, X=H, A=SO2, Y=3-Cl,4-CH3CONH—C6H3—]
3.7			O=S(=O)(Nc1ccc(Nc2ccccc2)cc1)c1cccc(F)c1 [T=H, X=H, A=SO2, Y=3-F—C6H4—]
7.4			O=S(=O)(Nc1ccc(Nc2ccccc2)cc1)c1cccnc1 [T=H, X=H, A=SO2, Y=3-pyridyl]
12.3			CC(=O)Nc1ccc(S(=O)(=O)Nc2ccc(Nc3ccccc3)cc2)cc1 [T=H, X=H, A=SO2, Y=4-CH3CONH—C6H4—]
11.8			N#Cc1ccc(S(=O)(=O)Nc2ccc(Nc3ccccc3)cc2)cc1 [T=H, X=H, A=SO2, Y=4-CN—C6H4]
4.3			O=[N+]([O-])c1ccc(S(=O)(=O)Nc2ccc(Nc3ccccc3)cc2)cc1 [T=H, X=H, A=SO2, Y=4-NO2—C6H4]
